In patent US11168086B2, “Methods of synthesizing pyrazine compounds” (Hoffmann-La Roche Inc., priority 2015, dated 2021):

What follows are molecules tested on HBV (assay: HBV inhibition assay: anti-HBV activity in vitro in HepG2.2.15 cells (extracellular HBV DNA by qPCR)). Conditions: Hepatitis B virus, 120 h, five days after compound treatment, extracellular HBV DNA in culture supernatant by qPCR, concentration at which HBV replication is inhibited by 50%.
Format: cell-based
Description: Example 441: HBV Inhibition Assays
Cell Line and Culture Conditions:
HepG2.2.15 is a stably-transfected cell line containing the HBV genome. It is derived from the hepatoblastoma cell line Hep G2 (American Type Culture Collection, ATCC® HB-8065™) by the published procedures described in reference: MA Selles et al. Proc. Natl. Acad. Sci. USA 1987, 84, 1005-1009. The cell line was maintained in Dulbecco's modified Eagle's medium (DMEM)-F12 medium supplemented with 10% fetal bovine serum, 100 U/mL penicillin, 100 μg/mL streptomycin, and 0.5 mg/mL of G418.
Anti-HBV Activity In Vitro:
HepG2.2.15 cells were seeded into 96-well plates (3×10^4 cells in 100 μL media per well) and incubated overnight at 37° C. The test compounds were serially half-log diluted in DMSO, then diluted 100 times in culture media. 100 μL diluted compounds were added into the plates to reach 0.5% final concentration of DMSO in every well. Five days after compound treatment, culture supernatant was collected for further analysis.
For quantitative PCR detection of extracellular HBV DNA, culture supernatant was processed by Proteinase K digestion. After heat inactivation of the enzyme, the samples were subjected to HBV DNA quantification by qPCR. The effective compound concentration at which
HBV replication is inhibited by 50% (EC50) was determined.

Compound | EC50 [nM]
C[C@H]1Cn2ncc(N3CN(c4ncccn4)CC3=O)c2CN1C(=O)Nc1cc(F)c(F)c(F)c1 [Example 281, (6S)-6-methyl-3-(5-oxo-3-pyrimidin-2-yl-imidazolidin-1-yl)-N-(3,4,5-trifluorophenyl)-6,7-dihydro-4H-pyrazolo[1,5-a]pyrazine-5-carboxamide] | 52
Cc1noc(C2CC(=O)N(c3cnn4c3CN(C(=O)Nc3cc(F)c(F)c(F)c3)[C@@H](C)C4)C2)n1 (stereo partly drawn) [Example 284, (6S)-6-methyl-3-[4-(3-methyl-1,2,4-oxadiazol-5-yl)-2-oxo-pyrrolidin-1-yl]-N-(3,4,5-trifluorophenyl)-6,7-dihydro-4H-pyrazolo[1,5-a]pyrazine-5-carboxamide] | 10
CC1CCN(c2cnn3c2CN(C(=O)Nc2cc(F)c(F)c(F)c2)[C@@H](C)C3)C(=O)O1 (stereo partly drawn) [Example 425, (6S)-6-methyl-3-(6-methyl-2-oxo-1,3-oxazinan-3-yl)-N-(3,4,5-trifluorophenyl)-6,7-dihydro-4H-pyrazolo[1,5-a]pyrazine-5-carboxamide] | 87
C[C@H]1Cn2ncc(N3CC(c4nnc(C(F)(F)F)o4)CC3=O)c2CN1C(=O)Nc1cc(F)c(F)c(F)c1 (stereo partly drawn) [Example 286, (6S)-6-methyl-3-[2-oxo-4-[5-(trifluoromethyl)-1,3,4-oxadiazol-2-yl]pyrrolidin-1-yl]-N-(3,4,5-trifluorophenyl)-6,7-dihydro-4H-pyrazolo[1,5-a]pyrazine-5-carboxamide] | 26
C[C@H]1Cn2ncc(N3CC4(CCC4)C(O)C3=O)c2CN1C(=O)Nc1cc(F)c(F)c(F)c1 (stereo partly drawn) [Example 422, (6S)-3-(8-hydroxy-7-oxo-6-azaspiro[3.4]octan-6-yl)-6-methyl-N-(3,4,5-trifluorophenyl)-6,7-dihydro-4H-pyrazolo[1,5-a]pyrazine-5-carboxamide] | 65
O=C(Nc1cc(F)c(F)c(F)c1)N1CCn2cnc(-c3ccc(F)cc3F)c2C1 [Example 138, 1-(2,4-difluorophenyl)-N-(3,4,5-trifluorophenyl)-6,8-dihydro-5H-imidazo[1,5-a]pyrazine-7-carboxamide] | 37
Cc1cc(NC(=O)N2CCn3ncc(-c4ccc(F)cc4)c3C2)ccc1F [Example 81, N-(4-fluoro-3-methyl-phenyl)-3-(4-fluorophenyl)-6,7-dihydro-4H-pyrazolo[1,5-a]pyrazine-5-carboxamide] | 32
Cc1cnn(-c2cnn3c2CN(C(=O)Nc2ccc(F)c(Cl)c2)C(C)C3)c1 (stereo not drawn) [Example 199, N-(3-chloro-4-fluoro-phenyl)-6-methyl-3-(4-methylpyrazol-1-yl)-6,7-dihydro-4H-pyrazolo[1,5-a]pyrazine-5-carboxamide] | 30
C[C@H]1Cn2ncc(N3CC(C(=O)N4CCC(F)(F)C4)CC3=O)c2CN1C(=O)Nc1cc(F)c(F)c(F)c1 (stereo partly drawn) [Example 398, (6S)-3-[4-(3,3-difluoropyrrolidine-1-carbonyl)-2-oxo-pyrrolidin-1-yl]-6-methyl-N-(3,4,5-trifluorophenyl)-6,7-dihydro-4H-pyrazolo[1,5-a]pyrazine-5-carboxamide] | 80
C[C@H]1Cn2ncc(N3C[C@H](C#N)CC3=O)c2CN1C(=O)Nc1cc(F)c(F)c(F)c1 [Example 240-1, (6S)-3-[(4R)-4-cyano-2-oxo-pyrrolidin-1-yl]-6-methyl-N-(3,4,5-trifluorophenyl)-6,7-dihydro-4H-pyrazolo[1,5-a]pyrazine-5-carboxamide] | 55
C#Cc1cc(NC(=O)N2CCn3cnc(-c4ccc(F)cc4F)c3C2)ccc1F [Example 134, 1-(2,4-difluorophenyl)-N-(3-ethynyl-4-fluoro-phenyl)-6,8-dihydro-5H-imidazo[1,5-a]pyrazine-7-carboxamide] | 85
C[C@H]1Cn2ncc(N3CC(c4ccccn4)OC3=O)c2CN1C(=O)Nc1cc(F)c(F)c(F)c1 (stereo partly drawn) [Example 345, (6S)-6-methyl-3-[2-oxo-5-(2-pyridyl)oxazolidin-3-yl]-N-(3,4,5-trifluorophenyl)-6,7-dihydro-4H-pyrazolo[1,5-a]pyrazine-5-carboxamide] | 17
N#Cc1cc(NC(=O)N2CCn3ncc(-c4ccc(F)cn4)c3C2)ccc1F [Example 76, N-(3-cyano-4-fluoro-phenyl)-3-(5-fluoro-2-pyridyl)-6,7-dihydro-4H-pyrazolo[1,5-a]pyrazine-5-carboxamide] | 95
C[C@H]1Cn2ncc(N3CC(c4nnco4)CC3=O)c2CN1C(=O)Nc1cc(F)c(F)c(F)c1 (stereo partly drawn) [Example 282, (6S)-6-methyl-3-[4-(1,3,4-oxadiazol-2-yl)-2-oxo-pyrrolidin-1-yl]-N-(3,4,5-trifluorophenyl)-6,7-dihydro-4H-pyrazolo[1,5-a]pyrazine-5-carboxamide] | 57
C[C@H]1Cn2ncc(N3CCCC3=O)c2CN1C(=O)Nc1cc(F)c(F)c(C(F)F)c1 [Example 239, (6S)—N-[3-(difluoromethyl)-4,5-difluoro-phenyl]-6-methyl-3-(2-oxopyrrolidin-1-yl)-6,7-dihydro-4H-pyrazolo[1,5-a]pyrazine-5-carboxamide] | 38
C[C@H]1Cn2ncc(N3Cc4ccnn4CC3=O)c2CN1C(=O)Nc1cc(F)c(F)c(F)c1 [Example 419, (6S)-6-methyl-3-(6-oxo-4,7-dihydropyrazolo[1,5-a]pyrazin-5-yl)-N-(3,4,5-trifluorophenyl)-6,7-dihydro-4H-pyrazolo[1,5-a]pyrazine-5-carboxamide] | 71
Cc1noc(C2CN(c3cnn4c3CN(C(=O)Nc3cc(F)c(F)c(F)c3)[C@@H](C)C4)C(=O)O2)n1 (stereo partly drawn) [Example 408, (6S)-6-methyl-3-[5-(3-methyl-1,2,4-oxadiazol-5-yl)-2-oxo-oxazolidin-3-yl]-N-(3,4,5-trifluorophenyl)-6,7-dihydro-4H-pyrazolo[1,5-a]pyrazine-5-carboxamide] | 22
Cc1nnc(C2(C)CC(=O)N(c3cnn4c3CN(C(=O)Nc3cc(F)c(F)c(F)c3)[C@@H](C)C4)C2)o1 (stereo partly drawn) [Example 403, (6S)-6-methyl-3-[4-methyl-4-(5-methyl-1,3,4-oxadiazol-2-yl)-2-oxo-pyrrolidin-1-yl]-N-(3,4,5-trifluorophenyl)-6,7-dihydro-4H-pyrazolo[1,5-a]pyrazine-5-carboxamide] | 31
C[C@H]1Cn2ncc(N3CC4(CC4)CC3=O)c2CN1C(=O)Nc1cc(F)c(F)c(F)c1 [Example 252, (6S)-6-methyl-3-(6-oxo-5-azaspiro[2.4]heptan-5-yl)-N-(3,4,5-trifluorophenyl)-6,7-dihydro-4H-pyrazolo[1,5-a]pyrazine-5-carboxamide] | 15
C[C@H]1Cn2ncc(N3CN(S(C)(=O)=O)CC3=O)c2CN1C(=O)Nc1cc(F)c(F)c(F)c1 [Example 248, (6S)-6-methyl-3-(3-methylsulfonyl-5-oxo-imidazolidin-1-yl)-N-(3,4,5-trifluorophenyl)-6,7-dihydro-4H-pyrazolo[1,5-a]pyrazine-5-carboxamide] | 93
C[C@H]1Cn2ncc(N3CC(C(F)(F)F)CC3=O)c2CN1C(=O)Nc1ccnc(C(F)F)c1 (stereo partly drawn) [Example 241, (6S)—N-[2-(difluoromethyl)-4-pyridyl]-6-methyl-3-[2-oxo-4-(trifluoromethyl)pyrrolidin-1-yl]-6,7-dihydro-4H-pyrazolo[1,5-a]pyrazine-5-carboxamide] | 75
C[C@H]1Cn2ncc(N3CC(c4ccccc4)NC3=O)c2CN1C(=O)Nc1cc(F)c(F)c(F)c1 (stereo partly drawn) [Example 329, (6S)-6-methyl-3-(2-oxo-4-phenyl-imidazolidin-1-yl)-N-(3,4,5-trifluorophenyl)-6,7-dihydro-4H-pyrazolo[1,5-a]pyrazine-5-carboxamide] | 4
COCC1CC(=O)N(c2cnn3c2CN(C(=O)Nc2ccc(F)c(Cl)c2)[C@@H](C)C3)C1 (stereo partly drawn) [Example 295, (6S)—N-(3-chloro-4-fluoro-phenyl)-3-[4-(methoxymethyl)-2-oxo-pyrrolidin-1-yl]-6-methyl-6,7-dihydro-4H-pyrazolo[1,5-a]pyrazine-5-carboxamide] | 33
O=C(Nc1ccc(F)c(C(F)(F)F)c1)N1CCn2ncc(-c3ccccc3F)c2C1 [Example 34, 3-(2-fluorophenyl)-N-[4-fluoro-3-(trifluoromethyl)phenyl]-6,7-dihydro-4H-pyrazolo[1,5-a]pyrazine-5-carboxamide] | 52
CC1Cn2ncc(-c3ccc(F)cn3)c2CN1C(=O)Nc1ccc(F)c(C#N)c1 (stereo not drawn) [Example 100, N-(3-cyano-4-fluoro-phenyl)-3-(5-fluoro-2-pyridyl)-6-methyl-6,7-dihydro-4H-pyrazolo[1,5-a]pyrazine-5-carboxamide] | 61
C[C@H]1Cn2ncc(N3CC(Cn4cccn4)CC3=O)c2CN1C(=O)Nc1cc(F)c(F)c(F)c1 (stereo partly drawn) [Example 268, (6S)-6-methyl-3-[2-oxo-4-(pyrazol-1-ylmethyl)pyrrolidin-1-yl]-N-(3,4,5-trifluorophenyl)-6,7-dihydro-4H-pyrazolo[1,5-a]pyrazine-5-carboxamide] | 96

Same assay, conditions: five days after compound treatment, extracellular HBV DNA in culture supernatant by qPCR, concentration at which HBV replication is inhibited by 50%

Compound | EC50 [nM]
C[C@H]1Cn2ncc(N3CC(c4ccccc4)C(O)C3=O)c2CN1C(=O)Nc1cc(F)c(F)c(F)c1 (single isomer, unassigned) [Example 438-1] | 10
